Test results: US20250115576A1, “THERAPEUTIC COMPOUNDS AND METHODS OF USE THEREOF” (Genentech, Inc., priority 2018, published 2025)
Counter-ions that a name gives are not always drawn.

These compounds were tested against hNav1.7 (Homo sapiens (Human), UniProt Q15858) (assay: Patch voltage clamp electrophysiology (EP), Syncropatch 384PE, CHO cells stably expressing Nav1.7). Conditions: holding potential −50 mV, 7.5 min compound incubation, read-out: EP_SP hNav1.7 EVO IC50.
Type: cell-based
Description: Example 64c. Electrophysiological Assay (EP) (In Vitro Assay)
Patch voltage clamp electrophysiology allows for the direct measurement and quantification of block of voltage-gated sodium channels (NaV's), and allows the determination of the time- and voltage-dependence of block which has been interpreted as differential binding to the resting, open, and inactivated states of the sodium channel (Hille, B., Journal of General Physiology (1977), 69: 497-515).
The following voltage clamp electrophysiology studies are performed on representative compounds using cells heterologously expressing Nav1.7 or Nav1.5 channels. cDNAs for Nav1.7 (NM_002977) and Nav1.5 (AC137587) are stably expressed in Chinese Hamstr Ovary (CHO) cells and CHL (Chinese Hamster Lung) cells respectively. Sodium currents are measured in the whole-cell configuration using Syncropatch 384PE (Nanlon Technologies, Germany). 1NPC®-384 chips with custom medium resistance and single hole mode are used. Internal solution consists of (in mM): […], 10 CsCl, 20 EGTA, and 10 Hepes (pH adjusted to 7.2); and external solution contains (in mM): 60 NMDG, 80 NaCl, 4 KCl, 1 MgCl2, 2 CaCl2, 2 D-Glucose monohydrate, 10 Hepes (pH adjusted to 7.4 with NaOH).
After system flushing, testing compounds are dissolved in external solution containing 0.1% Pluronic F-127. The chip is moved into the measuring head and the instrument primes the chip with external and internal solutions. 10 μl cells are added to the chip from a cell hotel, and a negative pressure of −50 mBar is applied to form a seal. Following treatment with seal enhancer solution and wash-off with external solution, negative pressure of −250 mbar is applied for 1 second to achieve the whole-cell configuration, followed by three washing steps in external solution. 20 μl of compounds is added to 40 μl in each well (1:3 dilution of compounds), and after mixing, 20 μl is removed so the volume is retained at 40 ul. After approximately 13 minutes recordings, 20 μl/well of 2 uM TTX, or 333 uM Tetracaine (for […]) is added to achieve full block.
For voltage protocol, an holding potential of −50 mV is applied during the whole experiment. A depolarizing step is applied to −10 mV for 10 ms, followed by a hyperpolarization step to −150 mV for 20 ms to allow channel recovery from inactivation. A second depolarizing step is applied from −150 mV to −10 mV for 10 ms, where currents are measured to derive blocking effects of compounds. Inhibition is determined based on 7.5 min of compound incubation.

hNav1.7, sequence (Q15858 other isoform, or with tags, fused parts or gaps): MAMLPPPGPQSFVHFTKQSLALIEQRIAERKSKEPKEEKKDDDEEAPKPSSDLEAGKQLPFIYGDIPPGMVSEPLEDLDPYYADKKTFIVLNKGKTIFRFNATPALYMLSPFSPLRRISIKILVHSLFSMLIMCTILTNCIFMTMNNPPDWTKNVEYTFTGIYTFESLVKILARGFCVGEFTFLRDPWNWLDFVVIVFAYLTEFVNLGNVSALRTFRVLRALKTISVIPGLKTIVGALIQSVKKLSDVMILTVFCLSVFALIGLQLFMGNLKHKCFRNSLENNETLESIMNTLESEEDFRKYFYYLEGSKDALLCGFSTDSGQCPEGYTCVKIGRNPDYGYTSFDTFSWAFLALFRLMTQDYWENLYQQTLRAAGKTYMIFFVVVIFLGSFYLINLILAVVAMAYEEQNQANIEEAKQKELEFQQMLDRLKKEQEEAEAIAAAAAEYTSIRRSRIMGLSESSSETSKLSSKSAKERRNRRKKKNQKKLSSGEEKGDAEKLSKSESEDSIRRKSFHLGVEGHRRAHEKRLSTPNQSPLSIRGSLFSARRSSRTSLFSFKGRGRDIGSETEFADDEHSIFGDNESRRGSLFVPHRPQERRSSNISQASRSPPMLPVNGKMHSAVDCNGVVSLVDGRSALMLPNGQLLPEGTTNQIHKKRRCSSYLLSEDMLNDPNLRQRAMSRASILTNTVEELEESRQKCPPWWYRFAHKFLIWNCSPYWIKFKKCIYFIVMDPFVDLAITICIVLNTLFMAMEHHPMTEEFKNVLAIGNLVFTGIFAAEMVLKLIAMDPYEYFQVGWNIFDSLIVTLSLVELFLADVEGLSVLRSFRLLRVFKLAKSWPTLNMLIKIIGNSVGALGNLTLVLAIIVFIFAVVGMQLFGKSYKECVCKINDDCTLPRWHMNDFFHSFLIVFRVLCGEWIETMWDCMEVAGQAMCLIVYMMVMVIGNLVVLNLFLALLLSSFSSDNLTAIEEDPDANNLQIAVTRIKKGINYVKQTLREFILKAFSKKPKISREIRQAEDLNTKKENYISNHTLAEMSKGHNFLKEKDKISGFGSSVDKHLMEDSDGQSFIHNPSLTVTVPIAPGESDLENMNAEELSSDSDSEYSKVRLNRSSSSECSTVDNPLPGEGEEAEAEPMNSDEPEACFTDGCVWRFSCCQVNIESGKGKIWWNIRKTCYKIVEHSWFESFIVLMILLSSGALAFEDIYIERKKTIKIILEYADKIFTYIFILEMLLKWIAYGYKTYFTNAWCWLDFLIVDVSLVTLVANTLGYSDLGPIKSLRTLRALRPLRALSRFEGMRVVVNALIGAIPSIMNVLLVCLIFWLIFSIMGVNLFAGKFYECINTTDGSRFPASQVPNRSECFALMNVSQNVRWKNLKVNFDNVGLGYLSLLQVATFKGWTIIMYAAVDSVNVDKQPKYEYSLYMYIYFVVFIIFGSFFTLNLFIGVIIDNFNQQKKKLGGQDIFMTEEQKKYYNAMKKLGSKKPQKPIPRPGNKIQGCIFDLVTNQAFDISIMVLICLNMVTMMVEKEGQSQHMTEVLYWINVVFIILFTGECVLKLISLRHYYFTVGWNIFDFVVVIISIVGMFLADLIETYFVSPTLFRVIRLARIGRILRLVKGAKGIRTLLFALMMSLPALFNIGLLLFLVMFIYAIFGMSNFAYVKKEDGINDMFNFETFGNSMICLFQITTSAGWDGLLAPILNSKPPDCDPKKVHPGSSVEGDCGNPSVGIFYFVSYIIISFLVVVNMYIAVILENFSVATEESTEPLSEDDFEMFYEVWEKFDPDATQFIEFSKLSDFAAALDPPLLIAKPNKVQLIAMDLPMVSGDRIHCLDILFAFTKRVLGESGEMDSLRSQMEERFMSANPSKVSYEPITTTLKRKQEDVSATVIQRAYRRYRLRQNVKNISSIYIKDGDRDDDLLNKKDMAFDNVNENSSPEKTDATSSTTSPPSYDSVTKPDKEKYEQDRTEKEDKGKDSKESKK

| SMILES | IC50 [nM] |
| --- | --- |
| CN(C)[C@H]1C[C@@H](c2cccc(C(F)(F)F)c2)CC[C@@H]1Oc1ccc(S(=O)(=O)Nc2ccncn2)cn1 [Example 1, 6-(((1S,2S,4S)-2-(Dimethylamino)-4-(3-(trifluoromethyl)phenyl)cyclohexyl)oxy)-N-(pyrimidin-4-yl)pyridine-3-sulfonamide] | 0.9 |
| CN(C)[C@H]1C[C@@H](c2cccc(C(F)(F)F)c2)CC[C@@H]1Oc1ncc(S(=O)(=O)Nc2ccncn2)cc1Cl [Example 3, 5-Chloro-6-(((1S,2S,4S)-2-(dimethylamino)-4-(3-(trifluoromethyl)phenyl)cyclohexyl)oxy)-N-(pyrimidin-4-yl)pyridine-3-sulfonamide] | 2.21 |
| CN(C)[C@H]1C[C@@H](c2cccc(C(F)(F)F)c2)CC[C@@H]1Nc1ncc(S(=O)(=O)Nc2ccncn2)cc1Cl [Example 4, 5-Chloro-6-(((1S,2S,4S)-2-(dimethylamino)-4-(3-(trifluoromethyl)phenyl)cyclohexyl)amino)-N-(pyrimidin-4-yl)pyridine-3-sulfonamide] | 0.765 |
| CN(C)[C@H]1C[C@@H](c2cccc(C(F)(F)F)c2)CC[C@@H]1Nc1ccc(S(=O)(=O)Nc2ccncn2)nc1 [Example 5, 5-(((1S,2S,4S)-2-(Dimethylamino)-4-(3-(trifluoromethyl)phenyl)cyclohexyl)amino)-N-(pyrimidin-4-yl)pyridine-2-sulfonamide] | 8.33 |
| CN(C)[C@H]1C[C@@H](c2cccc(C(F)(F)F)c2)CC[C@@H]1Oc1ncc(S(=O)(=O)Nc2ccncn2)cc1C#N [Example 6, 5-Cyano-6-(((1S,2S,4S)-2-(dimethylamino)-4-(3-(trifluoromethyl)phenyl)cyclohexyl)oxy)-N-(pyrimidin-4-yl)pyridine-3-sulfonamide formate] | 3.51 |
| CN(C)[C@H]1C[C@@H](c2cccc(C(F)(F)F)c2)CC[C@@H]1Oc1ncc(S(=O)(=O)Nc2ccncn2)cc1C1CC1 [Example 7, 5-Cyclopropyl-6-(((1S,2S,4S)-2-(dimethylamino)-4-(3-(trifluoromethyl)phenyl)cyclohexyl)oxy)-N-(pyrimidin-4-yl)pyridine-3-sulfonamide formate] | 1.16 |
| O=S(=O)(Nc1ccncn1)c1ccc(O[C@H]2CC[C@H](c3cccc(OC(F)(F)F)c3)C[C@@H]2N2CCCC2)nc1 [Example 10, N-(pyrimidin-4-yl)-6-(((1S,2S,4S)-2-(pyrrolidin-1-yl)-4-(3-(trifluoromethoxy)phenyl)cyclohexyl)oxy)-pyridine-3-sulfonamide] | 5.62 |
| CN(C)[C@H]1C[C@@H](c2ccc(Cl)c(C(F)(F)F)c2)CC[C@@H]1Nc1ccc(S(=O)(=O)Nc2ccncn2)cn1 [Example 11, 6-(((1S,2S,4S)-4-(4-chloro-3-(trifluoromethyl)phenyl)-2-(dimethylamino)cyclohexyl)amino)-N-(pyrimidin-4-yl)pyridine-3-sulfonamide formate] | 1.07 |
| CN(C)[C@H]1C[C@@H](c2ccc(Cl)c(C(F)(F)F)c2)CC[C@@H]1Oc1ccc(S(=O)(=O)Nc2ccncn2)cn1 [Example 12, 6-(((1S,2S,4S)-4-(4-chloro-3-(trifluoromethyl)phenyl)-2-(dimethylamino)cyclohexyl)oxy)-N-(pyrimidin-4-yl)pyridine-3-sulfonamide formate] | 0.66 |
| CN(C)[C@H]1C[C@@H](c2cccc(OC(F)(F)F)c2)CC[C@@H]1Oc1ncc(S(=O)(=O)Nc2ccncn2)cc1Cl [Example 13, 5-chloro-6-(((1S,2S,4S)-2-(dimethylamino)-4-(3-(trifluoromethoxy)phenyl)cyclohexyl)oxy)-N-(pyrimidin-4-yl)pyridine-3-sulfonamide] | 1.55 |
| CN(C)[C@H]1C[C@@H](c2cccc(C(F)(F)F)c2)CC[C@@H]1Oc1ncc(S(=O)(=O)Nc2ccncn2)cc1C(F)(F)F [Example 14, 6-(((1S,2S,4S)-2-(dimethylamino)-4-(3-(trifluoromethyl)phenyl)cyclohexyl)oxy)-N-(pyrimidin-4-yl)-5-(trifluoromethyl)pyridine-3-sulfonamide] | 5.08 |
| Cc1cc(S(=O)(=O)Nc2ccncn2)cnc1O[C@H]1CC[C@H](c2cccc(C(F)(F)F)c2)C[C@@H]1N(C)C [Example 15, 6-(((1S,2S,4S)-2-(Dimethylamino)-4-(3-(trifluoromethyl)phenyl)cyclohexyl)oxy)-5-methyl-N-(pyrimidin-4-yl)pyridine-3-sulfonamide] | 4.23 |
| O=S(=O)(Nc1ccncn1)c1ccc(N[C@H]2CC[C@H](c3cccc(C(F)(F)F)c3)C[C@@H]2N2CCCC2)nc1 [Example 16, N-(pyrimidin-4-yl)-6-(((1S,2S,4S)-2-(pyrrolidin-1-yl)-4-(3-(trifluoromethyl)phenyl)cyclohexyl)-amino)pyridine-3-sulfonamide formate] | 2.79 |
| O=S(=O)(Nc1ccncn1)c1ccc(O[C@H]2CC[C@H](c3cccc(C(F)(F)F)c3)C[C@@H]2N2CCCC2)nc1 [Example 17, N-(pyrimidin-4-yl)-6-(((1S,2S,4S)-2-(pyrrolidin-1-yl)-4-(3-(trifluoromethyl)phenyl)cyclohexyl)oxy)-pyridine-3-sulfonamide formate] | 0.602 |
| O=S(=O)(Nc1ccncn1)c1cnc(O[C@H]2CC[C@H](c3cccc(C(F)(F)F)c3)C[C@@H]2N2CCCC2)c(Cl)c1 [Example 18, 5-chloro-N-(pyrimidin-4-yl)-6-(((1S,2S,4S)-2-(pyrrolidin-1-yl)-4-(3-(trifluoromethyl)phenyl)-cyclohexyl)oxy)pyridine-3-sulfonamide] | 0.388 |
| O=S(=O)(Nc1ccncn1)c1cnc(O[C@H]2CC[C@H](c3cccc(C(F)(F)F)c3)C[C@@H]2N2CCCCC2)c(Cl)c1 [Example 19, 5-chloro-6-(((1S,2S,4S)-2-(piperidin-1-yl)-4-(3-(trifluoromethyl)phenyl)cyclohexyl)oxy)-N-(pyrimidin-4-yl)pyridine-3-sulfonamide] | 0.281 |
| CN(C)[C@H]1C[C@@H](c2cccc(C(F)(F)F)c2)CC[C@@H]1Oc1ncc(S(=O)(=O)Nc2ccncn2)cc1Br [Example 20, 5-bromo-6-(((1S,2S,4S)-2-(dimethylamino)-4-(3-(trifluoromethyl)phenyl)cyclohexyl)oxy)-N-(pyrimidin-4-yl)pyridine-3-sulfonamide formate] | 0.9 |
| CN(C)[C@H]1C[C@@H](c2cccc(C(F)(F)F)c2)CC[C@@H]1Oc1ncc(S(=O)(=O)Nc2ccncn2)cc1F [Example 21, 6-(((1S,2S,4S)-2-(Dimethylamino)-4-(3-(trifluoromethyl)phenyl)cyclohexyl)oxy)-5-fluoro-N-(pyrimidin-4-yl)pyridine-3-sulfonamide] | 0.427 |
| CN(C)[C@H]1C[C@@H](c2cccc(C(F)(F)F)c2)CC[C@@H]1Oc1ccc(S(=O)(=O)Nc2ccncn2)c(Cl)n1 [Example 22, 2-Chloro-6-(((1S,2S,4S)-2-(dimethylamino)-4-(3-(trifluoromethyl)phenyl)cyclohexyl)oxy)-N-(pyrimidin-4-yl)pyridine-3-sulfonamide] | 2.21 |
| Cc1nc(O[C@H]2CC[C@H](c3cccc(C(F)(F)F)c3)C[C@@H]2N(C)C)ccc1S(=O)(=O)Nc1ccncn1 [Example 23, 6-(((1S,2S,4S)-2-(Dimethylamino)-4-(3-(trifluoromethyl)phenyl)cyclohexyl)oxy)-2-methyl-N-(pyrimidin-4-yl)pyridine-3-sulfonamide formate] | 0.765 |
| CCc1cc(S(=O)(=O)Nc2ccncn2)cnc1O[C@H]1CC[C@H](c2cccc(C(F)(F)F)c2)C[C@@H]1N(C)C [Example 24, 6-(((1S,2S,4S)-2-(Dimethylamino)-4-(3-(trifluoromethyl)phenyl)cyclohexyl)oxy)-5-ethyl-N-(pyrimidin-4-yl)pyridine-3-sulfonamide formate] | 8.33 |
| CN(C)[C@H]1C[C@@H](c2cccc(OC(F)(F)F)c2)CC[C@@H]1Oc1ccc(S(=O)(=O)Nc2ccncn2)cn1 [Example 25, 6-(((1S,2S,4S)-2-(dimethylamino)-4-(3-(trifluoromethoxy)phenyl)cyclohexyl)oxy)-N-(pyrimidin-4-yl)pyridine-3-sulfonamide formate] | 3.51 |
| O=S(=O)(Nc1ccncn1)c1ccc(O[C@H]2CC[C@H](c3cccc(C(F)(F)F)c3)C[C@@H]2N2CCCCC2)nc1 [Example 26, 6-(((1S,2S,4S)-2-(piperidin-1-yl)-4-(3-(trifluoromethyl)phenyl)cyclohexyl)oxy)-N-(pyrimidin-4-yl)pyridine-3-sulfonamide] | 1.16 |
